These results are taken from article PMC10222328 (Pharmaceuticals, 2023).

In one assay the target is T1, COX-2 (Homo sapiens, UniProt P35354).
T1 construct: purchased Abcam, UK
T1 sequence (P35354 18-604): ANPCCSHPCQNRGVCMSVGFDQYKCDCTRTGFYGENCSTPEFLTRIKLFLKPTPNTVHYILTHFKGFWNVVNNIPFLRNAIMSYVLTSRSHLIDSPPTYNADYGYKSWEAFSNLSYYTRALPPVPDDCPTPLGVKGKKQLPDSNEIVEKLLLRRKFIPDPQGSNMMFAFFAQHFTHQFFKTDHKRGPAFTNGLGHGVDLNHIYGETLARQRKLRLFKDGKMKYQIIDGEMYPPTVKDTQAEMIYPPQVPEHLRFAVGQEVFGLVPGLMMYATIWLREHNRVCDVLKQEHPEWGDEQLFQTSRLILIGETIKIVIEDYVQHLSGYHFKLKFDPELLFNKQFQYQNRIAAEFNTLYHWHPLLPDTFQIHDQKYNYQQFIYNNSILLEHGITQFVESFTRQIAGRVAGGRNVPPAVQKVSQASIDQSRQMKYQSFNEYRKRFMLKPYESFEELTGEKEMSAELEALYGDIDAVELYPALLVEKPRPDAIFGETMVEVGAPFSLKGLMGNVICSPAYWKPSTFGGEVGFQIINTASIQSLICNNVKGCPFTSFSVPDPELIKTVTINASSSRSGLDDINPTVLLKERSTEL
In words: Fluorometric COX-2 inhibitor screening kit. In kind it is biochemical. The procedure: (§1) COX-2 and 5-LOX inhibitory activities were tested using fluorometric COX-2 and 5-LOX inhibitor screening kits (Abcam, UK). These assays are based on the fluorometric detection of Prostaglandin G2 (a product generated by the COX enzyme) or on the fluorometric detection of intermediate generated by the 5-LOX enzyme. The experiments were conducted according to the manufacturers’ instructions.
(§2) For the determination of COX-2 inhibitory activity, tested compounds were dissolved in DMSO (5 mM stock solutions) and then diluted with the same solvent to obtain test solutions. Test solutions were further diluted 5X with COX assay buffer (2 µL of test solution and 8 µL COX assay buffer). […] Solvent control (SC) was prepared by adding 2 µL DMSO and 8 µL COX assay buffer, while sample (S) and enzyme control (EC) were prepared by adding 10 µL of diluted test solution and COX assay buffer, respectively, into assigned wells. For the determination of 5-LOX inhibitory activity, tested compounds were also dissolved in DMSO to prepare stock solutions with the same concentration (5mM), which were then diluted with the same solvent to obtain test solutions. Subsequently, test solutions were added to corresponding wells (2 µL).

Assay [1] relates to carrageenan-induced rat paw edema. The assay is described as follows: Carrageenan-induced rat paw edema model. As to conditions: for Rat paw thickness: mean ± SD; for inhibition in vivo at 2.5 mg/kg / inhibition in vivo at 5 mg/kg / inhibition in vivo at 10 mg/kg: Rattus norvegicus, po. In kind it is in vivo, Wistar albino rats. The procedure: In vivo assessment of anti-inflammatory activity of compounds 1–7 was conducted in the carrageenan-induced rat paw edema model. Inflammation in all rats was induced by an intraplantar injection of […] of 0.5% carrageenan saline in the left hind paw. Two hundred male Wistar albino rats (180–210 g) were divided into seven experimental (n = 168 rats, 8 rats per subgroup) and two control groups (n = 32 rats, 8 rats per subgroup).
Experimental groups involved rats that received compounds 1–7, and they were divided into three subgroups: rats received compounds 1–7 per os in three doses (2.5 mg/kg, 5 mg/kg, and 10 mg/kg) dissolved in 1% DMSO for 60 min before inducing inflammation.
In order to quantify the anti-inflammatory effect, the thickness of the left paw tissue of each rat was measured at the following time intervals: immediately before inducing inflammation (moment 0) and 1, 2, 3, and 4 h (moments 1, 2, 3, and 4) after inflammation. Tissue thickness was measured in the middle of the rat paw using a digital vernier caliper (Aerospace, Beijing, China).
In general terms: In the carrageenan paw model, swelling and tenderness develop within hours.

Another assay deals with COX-1. Conditions: COX-1 over COX-2; cited from earlier work.
In the next assay the target is T2, 5-LOX (Homo sapiens, UniProt P09917).
T2 construct: purchased Abcam, UK
T2 sequence (P09917 1-674): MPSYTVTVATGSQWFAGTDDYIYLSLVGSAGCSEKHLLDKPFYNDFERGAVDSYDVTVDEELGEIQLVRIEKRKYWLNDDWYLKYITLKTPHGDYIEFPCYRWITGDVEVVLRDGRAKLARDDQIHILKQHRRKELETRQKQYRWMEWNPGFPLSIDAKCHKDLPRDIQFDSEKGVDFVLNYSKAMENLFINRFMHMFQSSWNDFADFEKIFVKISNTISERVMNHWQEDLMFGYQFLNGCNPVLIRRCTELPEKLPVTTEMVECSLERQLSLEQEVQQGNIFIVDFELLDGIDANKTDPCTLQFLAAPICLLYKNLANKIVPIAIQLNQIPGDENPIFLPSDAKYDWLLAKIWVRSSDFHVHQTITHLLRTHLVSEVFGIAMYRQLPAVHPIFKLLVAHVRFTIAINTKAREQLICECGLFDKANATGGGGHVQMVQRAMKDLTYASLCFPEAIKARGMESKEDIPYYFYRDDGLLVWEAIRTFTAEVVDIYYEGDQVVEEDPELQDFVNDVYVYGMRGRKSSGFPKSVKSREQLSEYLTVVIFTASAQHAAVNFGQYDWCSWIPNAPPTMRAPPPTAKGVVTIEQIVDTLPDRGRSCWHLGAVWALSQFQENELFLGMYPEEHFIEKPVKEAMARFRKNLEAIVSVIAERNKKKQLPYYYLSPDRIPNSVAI
In words: Fluorometric 5-LOX inhibitor screening kit. In kind it is biochemical. Conditions: at 10 µM; mean ± standard error of two measurements; read-out: 5-LOX Percent of Inhibition. The procedure:
as §1, §2

The IC50 is the concentration at which inhibition is half-maximal. A lower IC50 goes with greater potency. For orientation: inhibition means the percentage by which the read-out fell short of the control. For orientation: inhibition in vivo means the change of the read-out against control, counted positive when it falls. Read a high inhibition in vivo as a response far below the control. In turn, `COc1ccc2cc([C@H](C)C(=O)O)ccc2c1` [Naproxen, reference compound] came in with an IC50 against COX-2 of 200 ± 20 nM. Further, the inhibition at 10 µM at COX-2 (read-out: COX-2 Percent of Inhibition) was 72.2 ± 1.4%. The Rat paw thickness is 6.20 ± 0.10 mm in assay [1] (2.5 mg/kg per os, 1 h after carrageenan); 5.87 ± 0.12 mm in assay [1] (2.5 mg/kg per os, 2 h after carrageenan); 5.60 ± 0.17 mm in assay [1] (2.5 mg/kg per os, 3 h after carrageenan); 5.03 ± 0.25 mm in assay [1] (2.5 mg/kg per os, 4 h after carrageenan); 5.87 ± 0.23 mm in assay [1] (5.0 mg/kg per os, 1 h after carrageenan); 5.37 ± 0.31 mm in assay [1] (5.0 mg/kg per os, 2 h after carrageenan). Moreover, the Rat paw thickness in assay [1] (5.0 mg/kg per os, 3 h after carrageenan) was determined as 5.07 ± 0.35 mm; in assay [1] (5.0 mg/kg per os, 4 h after carrageenan) it was 4.83 ± 0.21 mm; in assay [1] (10.0 mg/kg per os, 1 h after carrageenan), 5.73 ± 0.20 mm; in assay [1] (10.0 mg/kg per os, 2 h after carrageenan), 5.40 ± 0.40 mm; in assay [1] (10.0 mg/kg per os, 3 h after carrageenan), 5.20 ± 0.30 mm; in assay [1] (10.0 mg/kg per os, 4 h after carrageenan) it was 4.80 ± 0.40 mm. Also, the inhibition in vivo at 2.5 mg/kg in assay [1] (1 h, 2.5 mg/kg per os, 1 h after carrageenan) is 18.9%; in assay [1] (2 h, 2.5 mg/kg per os, 2 h after carrageenan) it was 24.9%; in assay [1] (3 h, 2.5 mg/kg per os, 3 h after carrageenan), 25.1%; in assay [1] (4 h, 2.5 mg/kg per os, 4 h after carrageenan) it was 44.8%. For the same compound, the inhibition in vivo at 5 mg/kg in assay [1] (1 h, 5.0 mg/kg per os, 1 h after carrageenan) is 27.1%; in assay [1] (2 h, 5.0 mg/kg per os, 2 h after carrageenan) it was 41.8%; in assay [1] (3 h, 5.0 mg/kg per os, 3 h after carrageenan), 47.1%; in assay [1] (4 h, 5.0 mg/kg per os, 4 h after carrageenan), 49.4%. The inhibition in vivo at 10 mg/kg in assay [1] (1 h, 10.0 mg/kg per os, 1 h after carrageenan) is 35.4%; in assay [1] (2 h, 10.0 mg/kg per os, 2 h after carrageenan) it was 43.3%; in assay [1] (3 h, 10.0 mg/kg per os, 3 h after carrageenan), 45.2%; in assay [1] (4 h, 10.0 mg/kg per os, 4 h after carrageenan), 56.3%. Also, the “Selectivity for COX-1” value in the assay on COX-1 is recorded as “approximately five”.
In the case of `CC(c1cc2ccccc2s1)N(O)C(N)=O` (stereo not shown) [Zileuton, reference compound], on 5-LOX, the inhibition at 10 µM was determined as 64.85 ± 0.39%.
